The text below walks through data of patent US20120101163A1, “COMPOSITION FOR INHIBITING CANCER METASTASIS” (TAIPEI MEDICAL UNIVERSITY, priority 2010, published 2012).

Structures are written as SMILES.

The subject of data set [1] is matrix metalloproteinase-2. As to the kind of experiment: Gelatin gel zymography of PMA-induced HT 1080 cells, MMP-2 activity. The data set is classed as cell-based, Human. As to conditions: HT 1080 cells, 0.4, 0.8, 1.2 and 1.6 mM, 24 hours. The procedure:
(§1) 4. Gelatin Gel Zymography (Shim et al., 2003; Park et al., 2005; Hwang et al., 2006)
(§2) HT 1080 cells with appropriate cell numbers were cultured in 60 mm culturing plates for 12 hours, respectively. After the cells were attached onto the bottom of the plate and formed a monolayer, the medium in the plate was removed. Fresh serum free mediums with different concentrations of a test sample were added to the plates, respectively, and 100 nM PMA was added to each plate to induce the cells to express great quantities of matrix metalloproteinase-2 and matrix metalloproteinase-9, and the plates were placed in a temperature of 37° C. for 24 hours. After centrifugation, each cultured supernatant were saved and mixed with SDS-sample buffer under the same protein contents which were then injected into a 10% SDS-polyacrylamide gel (containing 1 mg/ml gelatin) and then electrophoresed. After the electrophoresis was completed, the gel was taken out and washed with 20 mM Tris-HCl containing 25% isopropanol three times; 10 minutes per time. Then the gel was equilibrated with 20 mM Tris-HCl for 30 minutes, and finally an incubate buffer (5 mM CaCl2 and 1 mM ZnCl2) was added to the gel and reacted with the gel overnight. Then the gel was stained with coomassie blue, and positions having matrix metalloproteinase activity of the gel presented a white color.

Data set [2] relates to matrix metalloproteinase-9. As to the kind of experiment: Gelatin gel zymography of PMA-induced HT 1080 cells, MMP-9 activity. The data set is classed as cell-based, Human. The conditions noted are these: HT 1080 cells, 0.4, 0.8, 1.2 and 1.6 mM, 24 hours. The procedure: as §1, §2
Data set [3] deals with human umbilical vein endothelial cells. As to the kind of experiment: Cell viability assay of human umbilical vein endothelial cells. The data set is classed as cell-based. As to conditions: 24 hours. The procedure: A medium in a culturing plate containing cells grown covering the whole bottom of the culturing plate, was removed. The cells were washed with 10 ml of PBS, and then suspended and mixed well with 10 ml of medium (a part of the cells need to be suspended with Trypsin-EDTA buffer). The numbers of the cells were calculated by a hemocytometer, and the cells were diluted to an appropriate cell concentration and added into the wells of a 24 well culturing plate by an amount of 500 μl/well. The 24 well culturing plates were placed in an incubator at 37° C. in a humidified atmosphere containing 5% CO2. After the cells were attached onto the bottom of the wells, the medium in each well was removed, and fresh mediums with different concentrations of a test drug were added into wells, respectively (if the cells were suspension cells, the fresh medium may be added into the wells, directly). Then, the 24 well culturing plates were placed in an incubator at 37° C. in a humidified atmosphere containing 5% CO2 for 24 hours. After that, an upper medium in each well was removed. The cells were washed with a PBS buffer twice, and then an MTT solution which was prepared with a medium was added to each well. After the 24 well culturing plates were placed in an incubator at 37° C. for reacting 4-6 hours, an upper medium in each well was removed, and 100 μl of DMSO was added to each well to solubilize the formazan precipitates. After that, an ELISA reader was used to determine the absorbance for each well at 600 nm.
After human umbilical vein endothelial cells were treated with the different concentrations of L-Aspartic acid β-hydroxamate (CH) and different concentrations of L-Glutamic acid γ-hydroxamate (DH) for 24 hours, respectively, the cell viability assays were performed to the treated human umbilical vein endothelial cells and the angiogenesis conditions of the human umbilical vein endothelial cells were recorded. The results of the cell viability assays are shown as FIGS. 13 (A) and 14 (A). Photographs for the human umbilical vein endothelial cells treated with L-Aspartic acid β-hydroxamate (CH) and human umbilical vein endothelial cells treated with L-Glutamic acid γ-hydroxamate (DH) are shown as FIGS. 13 (B) and 14 (B), respectively.

For data set [4] the test system is unchanged. As to the kind of experiment: Tube formation assay (angiogenesis). The data set is classed as cell-based. The procedure: 13. Tube Formation Assay (Malinda et al., 1999)
1μ-Slide Angiogenesis ibiTreat chambers were coated with 10 μl Matrigel™ Mixtrix and placed in an incubator at 37° C. for 1 hour. 40 μl of a 3×10^5 cells/ml cell suspension was added to each chamber and left still for 20 minutes to let the cells attach to the chamber. After that, the medium in each chamber was removed. Fresh mediums with different concentrations of a test drug were added to the chambers, respectively and placed in an incubator at 37° C. After 18 hours, the angiogenesis appearance in each chamber was observed and photographed for recording.

Take `N[C@@H](CCC(=O)O)C(=O)O` [D, L-Glutamic acid, reference compound]: the “matrix metalloproteinase-2 inhibiting activity” value in data set [1] was “no inhibiting effect”. Moreover, the “matrix metalloproteinase-9 inhibiting activity” value in data set [2] is on record as “no inhibiting effect”.
Turning to `NC(CC(=O)NO)C(=O)O` [CH, L-Aspartic acid β-hydroxamate], the “cytotoxicity to human umbilical vein endothelial cells” value in data set [3] (0.25 mM) was “no cytotoxicity”. Besides, the “viability of human umbilical vein endothelial cells” value in data set [3] (0.75 mM) was “slight decreases”. For the same compound, in data set [4] (0.25 mM), the “angiogenesis inhibition at 0.25 mM” value was “already had an effect of inhibiting angiogenesis”. The “inhibition rate to angiogenesis” value in data set [4] (about 0.1-1.5 mM, stated as embodiment) is reported as 10-90%. In data set [4] (increasing concentrations), the “angiogenesis compared with the control group” value is on record as “significantly inhibited”.
